In patent US10716797B2, “Steroid alkaloids and compositions and kits thereof” (priority 2013, dated 2020):
“Also recorded” adds a separate entry of the source.

Key:
[1] = system: Listeria monocytogenes (strain ATCC 13932); experiment: Time-kill experiments, Listeria monocytogenes; type: cell-based
Method: Time-kill experiments were performed in order to determine whether the effect of test compounds or the combination with an aminoglycoside on Listeria monocytogenes (strain ATCC 13932) is bacteriostatic (prevents growth) or bactericidal (kills cells).
At several time points during growth at 35° C. (225 RPM), bacteria were sampled, serially diluted and plated on Brain Hearth Infusion agar (BHIA) for colony-forming unit (CFU) determinations (i.e., viable bacterial counts). Plates were incubated for 24 h at 35° C. It represents the results of three independent experiments.

[2] = system: S. aureus SCV strain NewbouldΔhemB; experiment: MIC by microdilution against SCV strain; type: cell-based, Staphylococcus aureus
Method: Method. The minimal inhibitory concentrations (MICs), (i.e. lowest concentration of an antimicrobial that will inhibit the visible growth of a microorganism after incubation), of test compounds were determined against the normal or SCV strains of bacterial species from the Firmicutes phylum. Briefly, MICs were determined using the microdilution method in 96-well plates (Clinical and Laboratory Standards Institute (CLSI), 2011). Bacteria were inoculated at ˜10^5-10^6 CFU/mL and incubated at 35° C. for 20 h (normal strains) or 48 h (SCVs) in brain heart infusion (BHI) broth in order to allow SCVs to reach maximal growth as previously described (Mitchell et al., 2012). Then OD595 nm was read on a microplate reader. […] In this example the range of compound concentrations tested was 0.03 to 64 μg/ml using doubling increments. Strain Staphylococcus aureus NewbouldΔhemB (hemB) was also used in the experiments and is a laboratory-derived stable SCV created by the insertion of the macrolide resistance gene ermA in the hemB gene of this strain to create the SCV phenotype (defective electron transport chain and respiratory deficiency) through inactivation of hemin biosynthesis (Brouillette et al., 2004). […]

[3] = system: S. aureus SCV strain CF07-S in polarized Calu-3 epithelial cells; experiment: Intracellular replication of SCV in Calu-3 cell infection assay; type: cell-based, Staphylococcus aureus; conditions: 2 and 4 μg/ml; 48 h post-internalization; vs DMSO-treated cells; hydrochloride
Method: Human airway epithelial cells, the Calu-3 cell line ATCC HTB 55, were used in this cell culture assay. Cells were cultured in Eagle's Minimum Essential Medium (EMEM) supplemented with 0.1 mM MEM nonessential amino acids, 1 mM of sodium pyruvate, 100 U/ml penicillin, 0.1 mg/ml streptomycin, 2.5 μg/ml of Fungizone and 10% fetal bovine serum (FBS) at 37° C. in 5% CO2. For routine culture, 4 μg/ml of puromycin was added to culture media. All cell culture reagents were purchased from Wisent (St-Bruno, QC, Canada). Cell infection assays were performed as previously described (Mitchell et al., 2011). Cells were seeded at 2.5×10^5 cells/inserts on 12-well Transwell™ plates and cultured for 9 to 10 days in an air:liquid system. The complete medium in the basal compartment was replaced by the invasion medium (1% FBS and no antibiotics) 18 h before assays. Inocula were prepared by suspending bacteria grown 20 h on BHIA plates in ice-cold PBS. Bacteria (the S. aureus SCV strain CF07-S; Mitchell et al., 2011) were then washed three times in ice-cold PBS and suspended in the invasion medium supplemented with 0.5% BSA at a density of approximately 4×10^8 CFU/ml. […] Fresh invasion medium supplemented with lysostaphin was also added 1 h before cell lysis to ensure that only intracellular bacteria were counted. […]

[4] = system: Listeria monocytogenes ATCC 13932 SCVs; experiment: Time-kill experiments, Listeria monocytogenes SCV; type: cell-based; conditions: 8 μg/mL; 8 h and 24 h; hydrochloride
Method: Time-kill experiments were performed in order to determine whether the effect of test compounds on SCVs of bacterial species of the Firmicutes phylum is bacteriostatic (prevents growth) or bactericidal (kills cells).
Listeria monocytogenes ATCC 13932 SCVs were produced by plating a large inoculum (˜10^5 bacterial cells) on brain heart infusion agar (BHIA) plates containing various amounts of gentamicin in order to create a selective pressure for the generation of electron transport-deficient bacteria with the SCV phenotype, which are known to be less susceptible to aminoglycoside antibiotics (e.g., gentamicin). Indeed, aminoglycosides require the proton-motive force in order to penetrate the bacterium (Bryan and Kwan, 1981). As expected, SCV isolates were collected from such selective plates and were then passaged on drug-free medium to assess stability of the SCV phenotype. SCV isolates keeping the SCV phenotype after several passages on drug-free medium were then used for experiments described below.
One of the L. monocytogenes SCV described above was used in time-kill experiments as described in Example 22. […] At some time-points during growth at 35° C. (225 RPM), bacteria were sampled, serially diluted and plated on BHIA for colony-forming unit (CFU) determinations (i.e., viable bacterial counts). Plates were incubated for 48 h at 35° C. […]

[5] = compound tested alone, strain NewbouldΔhemB

3-(N-aminoethyl)-aminotomatidine hydrochloride [Compound 14]
effect in time-kill in combination with gentamicin ([1]; 8 μg/ml with 2 μg/ml gentamicin): important bactericidal synergy | effect on growth in time-kill (CFU) ([1]; used alone at 8 μg/ml): reduces the growth | solubility in DMSO: 26 mg/mL | MIC ([2]; S. aureus hemB (SCV strain NewbouldΔhemB)): 0.5 µg/mL | Activity of the compounds against the SCV strain (class) [2, 5]: Moderate (MIC = 0.5-4 μg/mL: moderate activity) | MIC vs SCV [2, 5]: 0.5 to 1 µg/mL | intracellular SCVs in Calu-3 cells (CFU) [3]: can significantly decrease the infection; also recorded: significantly less SCVs | bactericidal effect on L. monocytogenes SCV (CFU) [4]: efficiently kills; also recorded: superior bactericidal activity
